Measured values published in paper PMC10796436, “Peptidyl nitroalkene inhibitors of main protease rationalized by computational and crystallographic investigations as antivirals against SARS-CoV-2” (Communications Chemistry, 2024).
Where “and” joins values, the source holds several entries; their conditions need not be identical. Equal values may be shown once.

Experiments:
Huh-7-ACE2 cells = details: 24h
[1] = Stability in TRIS buffer pH 7.5 by LCMS (warhead hydration); assay type: physicochemical
Procedure: (50 mM, pH 7.5), stored at ca. 30 °C and repeatedly analyzed by LCMS (stability in buffer). […]
Analysis was performed using Mestrenova. LCMS setup: Agilent 1100 series HPLC system coupled to an Agilent 1100 series LC/MSD Trap with electron spray ionization (ESI) , Agilent Poroshell 120 EC-C18, 150x2.10 mm, 4 μm column. A linear gradient was used for elution with a ternary pump using [water/ACN/water + 0.1% formic acid] that changes ratios from 80/10/10 to 0/90/10 over the course of 10 min (0.7 mL/min). Areas of peaks in the chromatogram (detection-λ = 326 nm) were used to calculate the change in concentrations. Retention time and mass spectrum recorded in positive ionization mode were used to assign species.
In preparation of experiments with longer incubation periods (metabolic stability, permeability etc.), first general stability in aqueous systems is to be assessed. For this, a TRIS/HCl buffer system at physiological pH was chosen.
In all measurements, only two relevant “species” of FGA146 are identifiable by mass spectrometry: m/z[M+H2O+H]+ = 504 with tR = 4.8 min and m/z[M+H]+ = 486 with tR = 5.1 min.
For quantification by UV AUC, 326 nm is used as detection wavelength. Wavelengths ≤255 nm are unsuitable since extinction coefficients of free and hydrated warhead seem to vastly differ.
Table 10. […] For exemplary depiction of chromatograms that were used to generate this table, compare Figure SX below. […]
tR = 4.8 min tR = 5.1 min m/z[M+H2O+H]+ = 504 m/z[M+H]+ = 486

DNMT2 = target: T1, DNMT2 (Homo sapiens, UniProt O14717); assay: DNMT2 MST-displacement assay; assay type: binding; details: 100 μM
T1 sequence (O14717 1-391): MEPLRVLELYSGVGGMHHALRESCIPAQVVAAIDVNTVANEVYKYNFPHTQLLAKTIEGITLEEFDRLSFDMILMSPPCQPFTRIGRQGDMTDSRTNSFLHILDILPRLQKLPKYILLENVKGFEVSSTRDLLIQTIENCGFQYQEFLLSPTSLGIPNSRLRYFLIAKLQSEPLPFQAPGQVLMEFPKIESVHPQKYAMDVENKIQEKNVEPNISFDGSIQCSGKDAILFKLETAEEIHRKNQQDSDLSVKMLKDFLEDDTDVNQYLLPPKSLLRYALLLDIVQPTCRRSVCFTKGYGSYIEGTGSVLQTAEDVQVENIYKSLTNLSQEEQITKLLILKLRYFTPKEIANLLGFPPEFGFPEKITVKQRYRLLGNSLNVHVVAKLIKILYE
Procedure: DNMT2 MST-Displacement Assay. Assay was conducted according to literature 59. The average of quadruple measurements is depicted for two independent measurements each. The positive control was measured without DNMT2 to detect totally unbound FTAD, additionally Sinefungin (SFG), a literature described DNMT2 inhibitor, was used as a second positive control. SFG and FGA146 concentrations in this assay were 100 µM each.
Figure 26. Microscale Thermophoresis displacement experiment against DNMT2.
Other potential off-targets. A search in ChEMBL database for the term “nitroalkene” gave the following papers (excluded 2 synthesis papers using nitroalkenes as reactants) - https://doi.org/10.1021/acsmedchemlett.6b00276: Nitroalkenes against rhodesain and cruzain - https://doi.org/10.1021/jm900326c: Nitroalkene fatty acids against PPARγ - https://doi.org/10.1016/j.ejmech.2012.08.013: Nitroalkene as head group against minor groove binders (anti-infective)
Results one and three are irrelevant due to different organisms as targets. Restult 2 is unlikely to be important, as fatty acid structure deviates from peptidic structure of inhibitors under investigation […]

Compound: COc1cccc2[nH]c(C(=O)N[C@@H](CC(C)C)C(=O)N[C@H](/C=C/[N+](=O)[O-])C[C@@H]3CCNC3=O)cc12 [FGA146]
- CC50 (Huh-7-ACE2 cells): > 100 µM
- equilibrium hydrated to free warhead ([1]; TRIS buffer pH 7.5, ca. 30 °C): 85/15
- time to 50% conversion to hydrated warhead ([1]; TRIS buffer pH 7.5, ca. 30 °C): 1 h
- time until hydration equilibrium is reached ([1]; TRIS buffer pH 7.5, ca. 30 °C): 4 h
- AUCpeak1/AUCTotal (hydrated, m/z 504) ([1]; t 0 h): 10%
- AUCpeak2/AUCTotal (intact, m/z 486) ([1]; t 0 h): 90%
- AUCpeak1/AUCTotal (hydrated, m/z 504) ([1]; t 0.25 h): 20%
- AUCpeak2/AUCTotal (intact, m/z 486) ([1]; t 0.25 h): 80%
- AUCpeak1/AUCTotal (hydrated, m/z 504) ([1]; t 0.5 h): 34%
- AUCpeak2/AUCTotal (intact, m/z 486) ([1]; t 0.5 h): 66%
- AUCpeak1/AUCTotal (hydrated, m/z 504) ([1]; t 1 h): 47% and 53%
- AUCpeak2/AUCTotal (intact, m/z 486) ([1]; t 1 h): 47% and 53%
- AUCpeak1/AUCTotal (hydrated, m/z 504) ([1]; t 3 h): 78%
- AUCpeak2/AUCTotal (intact, m/z 486) ([1]; t 3 h): 22%
- AUCpeak1/AUCTotal (hydrated, m/z 504) ([1]; t 4 h): 83%
- AUCpeak2/AUCTotal (intact, m/z 486) ([1]; t 4 h): 17%
- AUCpeak1/AUCTotal (hydrated, m/z 504) ([1]; t 5 h): 85%
- AUCpeak2/AUCTotal (intact, m/z 486) ([1]; t 5 h): 15%
- AUCpeak1/AUCTotal (hydrated, m/z 504) ([1]; t 7 h): 85%
- AUCpeak2/AUCTotal (intact, m/z 486) ([1]; t 7 h): 14%
- AUCpeak1/AUCTotal (hydrated, m/z 504) ([1]; t 30 h): 83%
- AUCpeak2/AUCTotal (intact, m/z 486) ([1]; t 30 h): 14%
- AUCpeak1/AUCTotal (hydrated, m/z 504) ([1]; t 31 h): 83%
- AUCpeak2/AUCTotal (intact, m/z 486) ([1]; t 31 h): 14%
- conversion to hydrated warhead ([1]; time to LCMS (<10 min)): 10%
- displacement of FTAD from DNMT2 (DNMT2): non-binder
